Assay results reported in patent publication US10487091B2, “Activators of autophagic flux and phospholipase D and clearance of protein aggregates including tau and treatment of proteinopathies” (THE TRUSTEES OF COLUMBIA UNIVERSITY IN THE CITY OF NEW YORK, priority 2015, dated 2019).
Like-named read-outs stand apart in the source and are kept apart here.

Tests used:
[1] = target: T1, PLD1 (Homo sapiens, UniProt Q13393); experiment: PLD1 activity: Proteostat/mKate2 with PLD2 inhibitor ML298; format: cell-based; details: with ML298, PLD2 inhibitor (355 nM)
T1 construct: endogenous in cells; host or cells: HEK 293 (Jump-In) cells with tet-regulated mKate2-Tau
T1 sequence (Q13393 1-1074): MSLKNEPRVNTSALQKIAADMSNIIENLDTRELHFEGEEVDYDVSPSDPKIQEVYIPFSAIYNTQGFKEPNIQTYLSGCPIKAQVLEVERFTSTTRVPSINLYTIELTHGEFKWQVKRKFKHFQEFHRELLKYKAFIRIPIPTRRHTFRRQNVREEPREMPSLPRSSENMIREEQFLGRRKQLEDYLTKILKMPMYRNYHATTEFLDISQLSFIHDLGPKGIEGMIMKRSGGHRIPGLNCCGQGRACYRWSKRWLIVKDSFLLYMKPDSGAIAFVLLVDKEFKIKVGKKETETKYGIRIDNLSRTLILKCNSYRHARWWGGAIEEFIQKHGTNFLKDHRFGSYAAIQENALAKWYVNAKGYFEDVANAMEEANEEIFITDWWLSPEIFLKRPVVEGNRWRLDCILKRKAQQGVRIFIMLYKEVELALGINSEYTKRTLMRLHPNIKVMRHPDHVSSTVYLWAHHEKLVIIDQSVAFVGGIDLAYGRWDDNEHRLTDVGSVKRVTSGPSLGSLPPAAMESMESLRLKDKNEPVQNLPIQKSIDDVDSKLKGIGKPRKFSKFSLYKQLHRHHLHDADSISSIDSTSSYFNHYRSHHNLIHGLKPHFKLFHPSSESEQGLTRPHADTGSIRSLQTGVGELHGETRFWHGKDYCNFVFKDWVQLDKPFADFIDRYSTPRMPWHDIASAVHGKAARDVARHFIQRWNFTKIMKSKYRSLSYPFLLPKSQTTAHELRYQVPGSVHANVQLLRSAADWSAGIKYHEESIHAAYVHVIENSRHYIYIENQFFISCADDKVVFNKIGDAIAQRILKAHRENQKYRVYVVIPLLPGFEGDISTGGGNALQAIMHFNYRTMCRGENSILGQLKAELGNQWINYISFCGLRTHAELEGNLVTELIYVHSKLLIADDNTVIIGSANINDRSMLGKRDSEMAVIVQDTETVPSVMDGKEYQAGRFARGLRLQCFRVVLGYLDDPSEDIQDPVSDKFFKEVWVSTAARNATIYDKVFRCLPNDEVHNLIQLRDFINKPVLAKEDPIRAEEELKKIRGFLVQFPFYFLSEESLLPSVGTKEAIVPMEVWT
Description: (§1) The assay was run in e18 primary cortical neurons from PLD1 or PLD2 KO mice cultured for 14 days. Alternatively, the assay can be run in the cells described above in the presence of excess PLD1 or PLD2 inhibitor to preclude that particular action from contributing to the effect of the drug.
(§2) 4) On the day of experiment, cells were washed in warmed HBSS twice before media containing test compound (n=3 per compound per dose), inhibitor (355 nM ML298 or 50 nM VU0150669), or vehicle are added to the wells (1.5 mL in 6 well, 600 μL in 12 well). Plates were incubated for 24 hours at 37° C. with 5% CO2.

[2] = tested on: mKate2 tagged Tau; experiment: Tau-mKate2 fluorescence EC50; format: cell-based; details: Homo sapiens; 50% reduction of mKate2 fluorescence (tau tag)
Description: (§3) 1) HEK cells with tet-regulated expression of mKate2 tagged Tau were grown in DMEM medium (Dulbecco's Modified Eagle's Medium) containing 0.5 μg/mL doxycycline (Dox)(MP-Bio#198955), after 3-5 days Dox was removed by washing the cells twice with sterile phosphate buffered saline (PBS; Invitrogen#14190-144), cells were left in DMEM without Dox for 72 hours (to further clear remaining Dox in cells).
The test compounds (along with CytoID™ dye and Hoechst stain) were added to the cells and incubated for 3 hours. Reference compounds were also used in each plate, Rapamycin was used for autophagy induction and chloroquine was used for lysosomal inhibition. […] Cells were then washed and read using a fluorescence plate reader. Hoescht, Cyto-ID™ and mKate2 were measured using 3 distinct wavelengths on the plate reader. […] After reading, test compound was re-added and the cells are left for a further 21 hours. At the 24 hour time point cells were once again washed and plates read using the fluorescence plate reader.
5) Treatment plate was then washed quickly 3 times with warm FB-DMEM (100 μL/well). […] At this point, the plate was ready for reading. See details in Reading Plate section. Hoescht was read at Excitation wavelength (Ex)=355 nm & Emission wavelength (Em)=446 nm. mKate2 was read at Ex=575 nm & Em=630 nm. Cyto-ID™ was read at Ex=463 nm & Em=534 nm. […]

[3] = tested on: aggregates (Proteostat); experiment: Proteostat protein aggregation assay EC50; format: cell-based; details: Homo sapiens; 50% reduction of Proteostat levels (fluorescent marker of aggregates)
Description: (§4) Proteostat™ assay was used to detect aggresomes via measurement of p62. Aggresomes are inclusion bodies that form when the ubiquitin-proteasome machinery is overwhelmed with aggregation-prone proteins. Typically, an aggresome forms in response to some cellular stress, such as hyperthermia, viral infection, or exposure to reactive oxygen species. Aggresomes may provide a cytoprotective function by sequestering the toxic, aggregated proteins and may also facilitate their ultimate elimination from cells by autophagy. Following the final plate read described in the Cyto-ID™ assay described above, Proteostat™ detection reagent was added to every well and the plate was incubated for 15 minutes. Following this incubation, the plate was read by fluorescence plate reader at the specified wavelength. After this plate read, the cells were fixed by incubating with warm paraformaldehyde for 8 minutes. The fixed cells were then read by plate reader as before.
8) Detection solution was prepared by adding 10 μl Proteostat™ detection reagent (ENZ-51023-KP002) and 200 μL of 10× assay buffer into 1790 μL water and mixing well.
9) 20 μL was added per well (each well had 80 μl of Fluorobrite™ media with no FBS) and incubated in the dark for 15 min at room temperature.
10) Fluorescence for Proteostat™ (Ex=550 nm; Em=600 nm) was then read.

[4] = target: T2, PLD2 (Homo sapiens, UniProt O14939); experiment: PLD2 activity: Proteostat/mKate2 with PLD1 inhibitor VU0150669; format: cell-based; details: for EC50: with PLD1 inhibitor VU0150669, 50 nM
T2 construct: endogenous in cells; host or cells: HEK 293 (Jump-In) cells with tet-regulated mKate2-Tau
Description: as §1, §2

[5] = Cytotoxicity LC50 (XTT assay for cell viability); format: cell-based; details: human, transfected HEK 293 cells that express mKate2-tagged Tau;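 note: cells carry doxycycline-repressible Tau, induced by withdrawing doxycycline for 72 h before compound exposure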
Description: The cells were grown in the presence of the antibiotic doxycycline. When the antibiotic is removed the cells produce Tau (which can be quantified), thus allowing the test compounds' effects on Tau's production to be compared. Doxycycline was removed for 72 hours prior to exposure to the test compounds to promote sufficient Tau production. Cells were subsequently plated into plates for each of the assays described below.

[6] = tested on: phospholipase D (PLD); experiment: PLD assay (conversion of phospholipids to phosphatidylethanols in presence of ethanol, LC/MS); format: cell-based, mice; details: PLD activation, fold; 24 hours incubation
Description: Cells were incubated with test compound for 24 hours. 25 minutes prior to harvest at 24 hours, 3% ethanol solution was added to the wells to catalyze cleavage of the phospholipid. Cells were then placed on ice, washed and harvested. The harvested cells were centrifuged and the supernatant was aspirated and the pellet kept. The pellet was resuspended and chloroform/methanol lipid extraction was performed. The sample was centrifuged and the organic layer was separated, dried under nitrogen and stored at −80° C. On the day of analysis, samples were resuspended and analysed by LC/MS. All phosphatidylethanol species (PEtOH32-40:0-6:16/18:0/1) were combined together and represented as total lipid content (all lipid species).
as §1, §2
5) 25 minutes prior to harvest, a 165 μL of a 3% ethanol solution was added to each well.
PLD activation converts phospholipids to phosphatidylethanols in the presence of ethanol. […] FIPI is a non-competitive inhibitor of PLD activity and was used as a negative control.

[7] = tested on: Autophagy Markers; experiment: Autophagy markers (Cyto-ID assay) in HEK 293 cells; format: cell-based, Human
Description: The dye used in the kit prevents its accumulation within lysosomes, but enables labelling of vacuoles associated with the autophagy pathway using the LC3 biomarker.
(§5) The test compounds (along with CytoID™ dye and Hoechst stain) were added to the cells and incubated for 3 hours. Reference compounds were also used in each plate, Rapamycin was used for autophagy induction and chloroquine was used for lysosomal inhibition. After 3 hours test compound was aspirated off and kept. Cells were then washed and read using a fluorescence plate reader. Hoescht, Cyto-ID™ and mKate2 were measured using 3 distinct wavelengths on the plate reader. The Hoescht measurement allowed normalisation of results across wells. After reading, test compound was re-added and the cells are left for a further 21 hours. At the 24 hour time point cells were once again washed and plates read using the fluorescence plate reader.
2) Test samples were prepared in warm FluoroBrite™ DMEM and with 10% FBS and 1% NEAA (FB-DMEM). Rapamycin 200 nM (Enzo #BML-A275-0025) was used for autophagy induction and […] chloroquine was used for lysosomal inhibition (bafilomycin or similar compounds were not used as they give a false negative result in the assay). Dimethyl Sulfoxide 1:1000 (DMSO; Fisher #BP231-100) was used as control. Autophagosome marker Cyto ID™ (1:500; Enzo #ENZ-51031-k200) and Hoechst (1:200) was added to these test sample preparations before treating the cells.
7) At 24 hours post reaction all medium was aspirated and the plate was washed 3 times with warm FB-DMEM, and read again for Hoescht (Ex=355 nm Em=446 nm), CytoID™ (Ex=463 nm; Em=534 nm) and mKate2 (Ex=575 nm; Em=630 nm) in 80 μl of FB-DMEM.

[8] = tested on: Tau/aggregate; experiment: Tau/aggregate inhibition in HEK 293 cells expressing mKate2-tagged Tau; format: cell-based, Human; details: Homo sapiens, HEK293
Description: as §3, §5, §4
Western blot assays were performed to determine protein changes in Tau and p62. Cells were cultured as above and incubated with test compounds for 24 h. Following test compound incubation, the test compound was aspirated off and cells were washed before harvesting. Cells were spun at a low speed and supernatant was aspirated to leave the cell pellet. The cell pellet was then homogenized in buffer, centrifuged at high speed, and the supernatant aspirated and further separated into total fraction and aggregate fraction allowing quantification of soluble and insoluble proteins. Western blots were run on the samples, gels transferred to nitrocellulose and incubated with antibodies for Tau and p62. After incubation with secondary antibodies for detection, the bands of protein were quantified by chemiluminescence.

[9] = Photodiode array (PDA) detection of compound in mouse brain; format: in vivo; details: FIG. 1
Description: FIG. 1 is a graph showing a photodiode array (PDA) spectrum of WHYKD8 in mouse brain.
A photodiode array (PDA) was used to detect WHYKD8 in mouse brain (FIG. 1).

T2 sequence (O14939 whole entry): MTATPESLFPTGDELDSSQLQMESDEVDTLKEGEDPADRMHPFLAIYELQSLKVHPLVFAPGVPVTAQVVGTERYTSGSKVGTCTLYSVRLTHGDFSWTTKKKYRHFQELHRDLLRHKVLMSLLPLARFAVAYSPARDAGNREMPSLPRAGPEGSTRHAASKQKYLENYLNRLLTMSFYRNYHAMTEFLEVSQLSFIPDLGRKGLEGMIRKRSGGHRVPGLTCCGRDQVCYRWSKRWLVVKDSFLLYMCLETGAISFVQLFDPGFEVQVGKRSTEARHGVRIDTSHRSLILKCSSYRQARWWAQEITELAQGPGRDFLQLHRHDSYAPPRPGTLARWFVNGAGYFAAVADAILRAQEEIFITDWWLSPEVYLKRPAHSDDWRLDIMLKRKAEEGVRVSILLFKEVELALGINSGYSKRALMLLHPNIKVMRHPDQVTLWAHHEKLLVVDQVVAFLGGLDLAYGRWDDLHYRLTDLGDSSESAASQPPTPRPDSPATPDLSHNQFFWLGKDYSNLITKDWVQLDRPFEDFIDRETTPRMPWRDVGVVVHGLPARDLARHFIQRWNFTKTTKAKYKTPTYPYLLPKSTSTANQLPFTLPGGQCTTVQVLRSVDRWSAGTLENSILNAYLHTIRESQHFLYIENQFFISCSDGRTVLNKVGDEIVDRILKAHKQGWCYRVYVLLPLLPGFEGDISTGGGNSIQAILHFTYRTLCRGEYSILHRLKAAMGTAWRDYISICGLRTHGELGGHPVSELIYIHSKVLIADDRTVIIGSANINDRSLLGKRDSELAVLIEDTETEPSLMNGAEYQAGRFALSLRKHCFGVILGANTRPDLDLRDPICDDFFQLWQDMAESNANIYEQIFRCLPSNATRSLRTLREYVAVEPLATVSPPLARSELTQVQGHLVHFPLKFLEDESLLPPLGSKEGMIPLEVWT

| Structure (SMILES) | EC50 ([1]; read-out: Proteostat (nM) using pharmacological inhibitor PLD1) [nM] | EC50 ([1]; read-out: mKate2 (nM) using pharmacological inhibitor PLD1) [nM] | EC50 [2] [nM] | EC50 [3] [nM] | Proteostat PLD2/PLD1 ratio ([4]; Proteostat readout) | mKate2 PLD2/PLD1 ratio ([4]; mKate2 readout) | EC50 ([4]; read-out: Proteostat (nM) using pharmacological inhibitor PLD2) [nM] | EC50 ([4]; read-out: mKate2 (nM) using pharmacological inhibitor PLD2) [nM] | CC50 ([5]; XTT assay, 200 = upper concentration limit tested, read-out: LC50 (the source's name)) [nM] | PLD [6] [X] | % Increase Autophagy Markers [7] [%] | CC50 ([5]; read-out: Cyto-toxixity LC50) [nM] | inhibition at 1 µM [8] [%] | detection in mouse brain [9] |
| --- | --- | --- | --- | --- | --- | --- | --- | --- | --- | --- | --- | --- | --- | --- |
| c1cnc2c(SC3CCCC3)ncnc2c1 [WHYKD36] | 394 | 1330 | 1040 | 383 | 1.5 | 1.7 | 604 | 2280 | 67000 |  |  |  |  |  |
| Oc1ccc(CCNc2ncnc3ccc(Cl)cc23)cc1 [WHYKD8] |  |  |  |  |  |  |  |  |  | 2.8 | 25 | > 100000 | 30 | readily detected |
